# According to patent publication US11331290B2, “Niclosamide for the treatment of cancer metastasis” (Max-Delbrück-Centrum für Molekulare Medizin in der …, priority 2011, dated 2022):
# Assays:
# Format in all cases: cell-based, human
# HCT116-vector cells = test: Soft agar colony formation assay; details: 1 μM, 7 days
# Protocol: (§1) Analysis of anchorage-independent cell proliferation was achieved by soft agar colony formation assay. A bottom layer containing 0.5% w/v agarose, RPMI-1640 medium, 10% FBS and 1 μM niclosamide or the respective amount of DMSO was added to a 6 cm Ø dish and incubated at room temperature under sterile conditions for 10 minutes. Onto the solidified bottom layer a top layer was added containing 8×10^3 cells, 0.33% w/v agarose, RPMI-1640 medium, 10% FBS and 1 μM niclosamide or the respective amount of DMSO. Cells were seeded as single cells into the soft agar and incubated in a humidified incubator at 37° C. and 5% CO2 for 7 days. Colony formation was visualized by 10× magnification for an overview and 40× magnification for single colonies in the Leica DM IL light microscope (Leica Microsystems). Colony quantification was achieved by counting cell colonies of more than 4 cells in 10 squares of […]. Colony formation experiments were repeated twice, each in triplicates.
# (§2) (A) Cell migration of HCT116-vector and HCT116-S100A4 cells exposed to niclosamide treatment. Cells were treated with 1 μM niclosamide for 24 hours and migration rates were measured with Boyden chamber assay. (B) Cell invasion of HCT116-vector and HCT116-S100A4 cells exposed to niclosamide treatment. Cells were treated with 1 μM niclosamide for 24 hours and cell invasion was determined by Boyden chamber assay. (C) Directed migration of HCT116-vector and HCT116-S100A4 cells exposed to niclosamide treatment analyzed by wound healing assay. Wounds of 300 μM width were set in a 60% confluent monolayer of HCT116-vector or HCT116-S100A4 cells on day 1. Cells were treated daily with 1 μM niclosamide for 4 days. Microphotographs of day 4 are presented here with black lines indicating margins of entered wound of day 1; scale bar represents 200 μM. Data represents three independent experiments. (D) Adhesive cell proliferation of HCT116-vector and HCT116-S100A4 cells exposed to niclosamide treatment. Cells were treated daily with 1 μM niclosamide and cell viability was determined with MTT assay. (E) Anchorage-independent cell growth of HCT116-vector and HCT116-S100A4 cells exposed to niclosamide treatment. Cells were plated as single cells into 0.33% (w/v) agarose and treatment (solvent or 1 μM niclosamide) containing medium. After 7 days colonies were visualized by light microscopy at 10× (overview) and 40× (single colony) magnification. (F) Quantification of colonies formed. Number of colonies (of more than 4 cells) was counted and normalized to solvent-treated HCT116-vector cells. Differences of niclosamide vs. solvent-treated cells were analyzed by Student's t test. Data represent mean±SE (n>2) of at least two independent experiments each performed in at least duplicate.
# HCT116-S100A4 cells = test: Soft agar colony formation assay; details: 1 μM, 7 days
# Protocol: as §1, §2
# HCT116 cells = test: Boyden chamber transwell migration assay; details: for cell migration rate, mean %: 1 μM daily for 3 days
# Protocol: HCT116, SW620, LS174T, SW480 and DLD-1 cells were used in cell migration and invasion analysis performed with Boyden chamber assay. 400 μL containing 2.5×10^5 cells were seeded into each transwell chamber with filter membranes of 12.0 μm pore size (Millipore, Schwalbach, Germany). For invasion filter membranes were coated with 50 μL Matrigel (diluted 1:3 in RPMI-1640; BD Biosciences) 10 minutes before cells were seeded. Fresh medium (600 μL) were added to the bottom chamber and cells were allowed to attach to the insets for 15 hours. […] Afterwards insets were removed and cells that had migrated through the membrane to the lower chamber were trypsinized and counted in a Neubauer chamber (LO-Laboroptik, Bad Homburg, Germany). Each well was counted ten times. Each migration or invasion experiment was performed in duplicate. The average number of migrated or invaded cells was determined for at least three independent experiments.
# (A) Chemical structure of niclosamide and its derivatives. In 2D illustrations the niclosamide structure was compared with the structure of niclosamide derivatives; marked in solid circles or boxes are added chemical groups, marked in grey and surrounded by dotted lines are removed chemical groups. In 3D illustrations grey clouds represent van der Waals surface, red and blue indicate negative and positive charges, respectively. (B) S100A4 expression under treated conditions. HCT116 cells were treated with 1 μM niclosamide or one of the niclosamide derivatives for 24 hours. S100A4 expression was analyzed by qRT-PCR and immunoblot. (C) Cell migration under treated conditions. HCT116 cells were treated with 1 μM niclosamide or one of its derivatives for 24 hours and cell migration was determined by Boyden chambder assay. Cells migrated to the lower chamber were counted and normalized to the number of migrated, solvent-treated HCT116 cells. Comparison of niclosamide or derivative-treated vs. solvent-treated cells was performed by two-sided one-way analysis of variance and Bonferroni post hoc multiple comparison test. Data is given as mean±SE at least four independent experiments each performed in duplicates.
# For WNT pathway analysis the following cells were applied: HCT116 cells (heterozygous for gain-of-function-mutated CTNNB1; wt/mut), HAB-68mut cells (deletion mutant of HCT116, expressing only gain-of-function-mutated CTNNB1: −/mut) and HAB-92 wt cells (deletion mutant of HCT116, expressing only wild-type CTNNB1: wt/−). (A) CTNNB1 genotype dependent effect of niclosamide on LEF/TCF transcription factor reporter gene expression. Cells were treated with 1 μM niclosamide for 24 hours. Reporter gene expression was determined by luciferase activity measurement. For each condition and cell line TOPflash expression was normalized to FOPflash expression. (B) CTNNB1 genotype dependent effect of niclosamide on S100A4 expression. Cells were treated with 1 μM niclosamide for 24 hours. S100A4 expression was analyzed by qRT-PCR and immunoblot. (C) CTNNB1 genotype dependent effect of niclosamide on migration rates. Cells were treated with 1 μM niclosamide for 24 hours and cell migration was determined by Boyden chamber assay. Data represents mean±SE of at least three independent experiments. Differences were analyzed by Student's t test (n.s.; not statistically significant). (D) Nuclear localization of CTNNB1 under niclosamide treatment. Nuclear extracts of HCT116 cells treated with the indicated concentrations of niclosamide for 18 hours were analyzed by immunoblot. (E) Effect of niclosamide on CTNNB1/TCF complex. Nuclear extracts of HCT116 cells treated with the indicated concentrations of niclosamide for 18 hours were analyzed by EMSA for the TCF-binding site of the S100A4 promoter. Supershift was performed by addition of a monoclonal anti-CTNNB1 antibody. (F) Presence of CTNNB1 on the S100A4 promoter under niclosamide treatment. HCT116 cells were treated with 1 μM niclosamide for 18 hours and processed for ChIP assay. […]
compound,measurement,setting,value
"O=C(Nc1ccc([N+](=O)[O-])cc1Cl)c1cc(Cl)ccc1O [niclosamide, 2′,5-dichloro-4′-nitrosalicylanilide]",colony size,HCT116-vector cells,clearly reduced
same,"number of colonies, mean % of solvent-treated HCT116-vector cells",HCT116-vector cells,6.8%
same,"number of colonies, mean difference control vs niclosamide",HCT116-vector cells,93.2%
same,colony size,HCT116-S100A4 cells,clearly reduced
same,"number of colonies, mean difference control vs niclosamide",HCT116-S100A4 cells,100.7%
same,"number of colonies, mean % of solvent-treated HCT116-vector cells",HCT116-S100A4 cells; solvent control 105.8%,5.0%
same,"cell migration rate, mean %","HCT116 cells; 24 hours post-treatment, control 100.0%",18.7%
same,"cell migration rate, mean %","HCT116 cells; 48 hours post-treatment, control 100.0%",12.2%
same,"cell migration rate, mean %","HCT116 cells; 72 hours post-treatment, control 108.8%",10.4%
same,"migration rate, mean difference control vs niclosamide","HCT116 cells; 1 μM, 24 h (relative scale)",0.54
same,"migration rate, mean (relative to HCT116 control)","HCT116 cells; 1 μM, 24 h, control 1.00",0.45
same,"migration, mean difference control vs niclosamide",HCT116 cells; 24 hours post-treatment,81.3%
same,"migration, mean difference control vs niclosamide",HCT116 cells; 48 hours post-treatment,87.8%
same,"migration, mean difference control vs niclosamide",HCT116 cells; 72 hours post-treatment,98.4%
